Test results published in the supplement of paper PMC10307832.

What was measured:
Test in all cases: relative viability (nuclei count vs DMSO), 5 days (fraction); higher = more cells survive
[1] = compound: O=c1cc(-c2cccc3c2Sc2ccccc2S3)oc(N2CCOCC2)c1
Procedure, shortened: (§1)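 Lung cancer cell lines received five library-drug doses (not always all listed) spaced by √10, pinned on vehicle-anchored 1536-well plates after an overnight stay at 37 °C. Five days later, with no medium change, nuclei were Hoechst-stained, imaged at 4× and counted with MetaXpress. Viability is treated-well nuclei relative to vehicle-well nuclei, as a median across plates. Passing plates had control CV below 25% and at least one doubling.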

[2] = compound: C1COCCN1C2=CC(=O)C3=C(O2)C(=CC=C3)C4=CC=CC5=C4SC6=CC=CC=C56
Procedure, shortened: as §1

[3] = compound: CCN(CC)CCCCNc1ncc2cc(-c3cc(OC)cc(OC)c3)c(NC(=O)NC(C)(C)C)nc2n1
Procedure, shortened: as §1

Zibotentan = compound: COc1nc(C)cnc1NS(=O)(=O)c1cccnc1-c1ccc(-c2nnco2)cc1 [Zibotentan]
Procedure, shortened: as §1

PRIMA-1MET = compound: COCC1(CO)C(=O)C2CCN1CC2 [PRIMA-1MET]
Procedure, shortened: as §1

Row | Cell Line | relative viability ([1]; 0.08 µM) | relative viability ([1]; 0.253 µM) | relative viability ([1]; 0.8 µM) | relative viability ([1]; 2.53 µM) | relative viability ([1]; 8 µM) | relative viability ([2]; 0.01 µM) | relative viability ([2]; 0.03162 µM) | relative viability ([2]; 0.1 µM) | relative viability ([2]; 0.3162 µM) | relative viability ([2]; 1 µM) | relative viability ([3]; 0.01 µM) | relative viability ([3]; 0.03162 µM) | relative viability ([3]; 0.1 µM) | relative viability ([3]; 0.3162 µM) | relative viability ([3]; 1 µM) | relative viability (Zibotentan; 0.08 µM) | relative viability (Zibotentan; 0.253 µM) | relative viability (Zibotentan; 0.8 µM) | relative viability (Zibotentan; 2.53 µM) | relative viability (PRIMA-1MET; 0.2 µM) | relative viability (PRIMA-1MET; 0.6325 µM) | relative viability (PRIMA-1MET; 2 µM) | relative viability (PRIMA-1MET; 6.325 µM) | relative viability (PRIMA-1MET; 20 µM)
1 | NCI-H1792 | 0.904 | 1.06 | 0.783 | 0.864 | 0.863 | 0.939 | 0.99 | 0.908 | 0.91 | 0.868 | 0.979 | 0.976 | 1.04 | 1.25 | 0.521 | 0.998 | 0.763 | 0.879 | 0.943 | 0.923 | 0.804 | 0.677 | 0.924 | 0.778
2 | NCI-H1793 | 0.819 | 1.3 | 0.857 | 0.771 | 0.805 | 0.888 | 0.786 | 0.918 | 0.896 | 0.806 | 0.903 | 0.933 | 1.03 | 0.944 | 0.683 | 0.938 | 0.862 | 0.801 | 1.03 | 0.936 | 0.815 | – | 1.08 | 0.923
3 | NCI-H1915 | 0.988 | 1.02 | 1.13 | 0.993 | 1.04 | 1.04 | 1.08 | 1.06 | 0.995 | 1.05 | 1.08 | 1.04 | 1.02 | 1.12 | 1.01 | 1.06 | 0.986 | 0.973 | 1.01 | 0.954 | 0.859 | 0.734 | 1 | 0.957
4 | NCI-H1944 | 0.938 | 1.09 | 0.905 | 0.752 | 1.09 | 1 | 1.01 | 1.02 | 0.997 | 0.949 | 0.945 | 0.875 | 1.06 | 0.985 | 0.894 | 1.07 | 0.94 | 0.874 | 1.01 | 1.06 | 0.782 | 0.695 | 0.927 | 0.924
5 | NCI-H1975 | 0.907 | 1.12 | 0.836 | 0.936 | 0.966 | 0.941 | 0.985 | 0.866 | 0.97 | 1.04 | 0.993 | 0.87 | 1.01 | 1.2 | 0.882 | 0.966 | 0.882 | 0.892 | 1.01 | 1.05 | 0.937 | 0.847 | 1.04 | 0.753
6 | NCI-H1993 | 0.84 | 1.05 | 0.846 | 0.824 | 0.826 | 0.882 | 0.931 | 1.1 | 0.995 | 0.84 | 0.976 | 0.924 | 1.05 | 1.45 | 0.901 | 0.966 | 0.871 | 0.913 | 1.04 | 1 | 0.767 | 0.824 | 0.92 | 0.955
7 | NCI-H2009 | 0.987 | 1.03 | 0.962 | 0.93 | 0.869 | 1.02 | 0.995 | 1.01 | 0.982 | 0.927 | 1.05 | 1.06 | 1.04 | 1.07 | 0.979 | 1 | 0.968 | 1.07 | 1.06 | 0.944 | 0.976 | 1.03 | 1.04 | 0.0681
8 | NCI-H2023 | 0.923 | 1.12 | 0.972 | 0.865 | 0.888 | 1.05 | 1.1 | 1.04 | 0.973 | 0.908 | 0.914 | 1.09 | 1.16 | 1.05 | 0.854 | 1.06 | 0.794 | 0.899 | 1 | 1.3 | 0.888 | 0.955 | 0.97 | 0.826
9 | NCI-H2085 | 0.95 | 1.1 | 1.05 | 0.96 | 0.892 | 0.986 | 0.961 | 0.97 | 0.974 | 0.966 | 1.03 | 0.987 | 0.99 | 1.02 | 0.972 | 1.01 | 0.954 | 1.05 | 1.03 | 1.06 | 1 | 0.791 | 1.05 | 0.524
10 | NCI-H2087 | 0.958 | 1.15 | 1.12 | 0.835 | 1.13 | 1.11 | 1.08 | 1.01 | 0.977 | 1.05 | 1.02 | 0.966 | 1.16 | 1.03 | 0.942 | 0.934 | 1.02 | 1.16 | 1.05 | 0.687 | 0.883 | 0.912 | 1.17 | 0.773
11 | NCI-H2126 | 0.986 | 1.03 | 0.862 | 0.932 | 1.03 | 0.972 | 1 | 1 | 1.01 | 0.98 | 1.02 | 0.992 | 1.06 | 1.07 | 0.983 | 1.01 | 0.965 | 0.913 | 1.05 | 1.03 | 0.978 | 0.901 | 1.03 | 0.978
12 | NCI-H2170 | 0.946 | 1.05 | 1 | 0.911 | 0.991 | 0.969 | 1.02 | 0.973 | 0.947 | 0.965 | 1.08 | 0.976 | 1.02 | 1.05 | 1 | 0.997 | 0.992 | 0.968 | 1 | 1.02 | 0.848 | 0.971 | 1.07 | 0.946
13 | NCI-H2228 | 1.04 | 1.09 | 1.02 | 1.07 | 1.1 | 1.25 | 0.89 | 0.981 | 0.821 | 1.03 | 0.984 | 1.06 | 1.26 | 1.16 | 0.941 | 1.09 | 0.997 | 0.956 | 0.994 | 0.99 | 0.964 | 1.07 | 1.06 | 0.0562
14 | NCI-H2342 | 0.836 | 1.07 | 0.964 | 0.982 | 1.04 | 1.01 | 1.04 | 0.955 | 0.959 | 0.875 | 0.932 | 0.899 | 0.971 | 1.09 | 1.06 | 0.937 | 0.945 | 0.944 | 0.942 | 1.07 | 1.05 | 0.693 | 0.974 | 0.915
15 | NCI-H2347 | 0.96 | 1.07 | 1.1 | 1.13 | 1.13 | 1.11 | 0.979 | 0.957 | 0.981 | 0.988 | 0.998 | 1.01 | 1.12 | 1.15 | 0.931 | 1.04 | 0.95 | 1.12 | 1.06 | 0.961 | 0.959 | 0.779 | 1.11 | 1.02
16 | NCI-H2405 | 0.958 | 0.998 | 0.979 | 0.878 | 1.14 | 1.03 | 0.906 | 1.03 | 1.1 | 0.958 | 0.988 | 1.03 | 1.13 | 1.08 | 0.982 | 1.06 | 0.942 | 1.03 | 1.09 | 0.881 | 0.972 | – | 0.952 | 0.509
17 | NCI-H3122 | 1.01 | 1.02 | 1.03 | 1.03 | 1.08 | 1.01 | 0.988 | 1.01 | 0.961 | 1.01 | 1.02 | 1.04 | 1.07 | 1.1 | 0.967 | 1.02 | 1.01 | 0.978 | 0.98 | 0.85 | 0.972 | 0.948 | 1.01 | 1
18 | PC-3 [JPC-3] | 0.99 | 1.05 | 1.02 | 0.943 | 1.08 | 0.965 | 1.01 | 0.91 | 1.03 | 0.977 | 1.1 | 1.02 | 1.12 | 1.23 | 0.911 | 1.06 | 0.979 | 1.05 | 1.06 | 1.16 | 1 | 0.997 | 1.07 | 0.997
19 | PC-14 | 1.02 | 1.18 | 0.981 | 0.87 | 1.06 | 0.936 | 0.993 | 0.981 | 1.09 | 0.971 | 1.09 | 1.06 | 1.18 | 1.25 | 0.966 | 1.04 | 0.873 | 1.05 | 1.02 | 1.06 | 0.956 | 0.944 | 1.05 | 0.688
20 | RERF-LC-KJ | 0.932 | 1.09 | 1.03 | 0.968 | 0.929 | 0.992 | 0.974 | 1.03 | 0.949 | 0.956 | 1.02 | 1.11 | 1.04 | 1.06 | 0.978 | 1.02 | 0.925 | 0.904 | 1.03 | 1.11 | 1.01 | 1.06 | 1.12 | 0.952
21 | SK-LU-1 | 1.14 | 1.14 | 1.3 | 0.97 | 1.13 | 1.05 | 1.13 | 0.92 | 1.07 | 1.04 | 1.05 | 0.991 | 1.24 | 1.27 | 0.952 | 1.01 | 1.04 | 1.02 | 1.08 | 1.16 | 1.06 | 0.801 | 1.13 | 0.837
22 | SK-MES-1 | 1 | 1.16 | 0.927 | 0.933 | 0.928 | 1 | 1 | 0.999 | 0.988 | 0.934 | 1.09 | 1.07 | 1.08 | 1.08 | 1.01 | 1.01 | 0.911 | 0.955 | 1.07 | 1.1 | 1 | 0.993 | 1.09 | 0.98
23 | SW 900 | 0.622 | 0.892 | 0.942 | 0.809 | 0.774 | 0.793 | 0.811 | 0.721 | 0.942 | 0.853 | 0.907 | 1.11 | 0.804 | 1.02 | 0.717 | 0.918 | 0.75 | 0.851 | 0.921 | 0.984 | 0.757 | 0.637 | 0.804 | 0.0765
24 | SW 1573 | 0.965 | 1.1 | 1 | 0.949 | 1.1 | 0.981 | 0.998 | 0.985 | 0.952 | 0.938 | 0.932 | 1.01 | 1.09 | 1.02 | 0.906 | 1.03 | 0.707 | 1.08 | 1.09 | 1.11 | 0.787 | 0.87 | 0.246 | 0.0301
25 | UMC-11 | 0.998 | 1.18 | 1.09 | 0.916 | 1.25 | 0.986 | 0.952 | 0.982 | 1.02 | 0.989 | 1.03 | 0.915 | 1.01 | 1.01 | 0.98 | 1.01 | 1.01 | 0.951 | 0.978 | 1.05 | 0.887 | 0.848 | 0.97 | 0.944
